The pEC50 is the negative decadic logarithm of the EC50, by convention in mol/L.

The structures appear in SMILES notation. pEC50: −log10 of the molar value.

EC50 data for 6 molecules are collected here from patent publication US12344610B2, “APOL1 inhibitors and methods of use” (Maze Therapeutics, Inc., priority 2022, dated 2025).

Format in all cases: cell-based
Test [1] relates to Trypanosoma brucei Lister 427 VSG221 with APOL1 G1 recombinant protein. Nature of the test: APOL1 G1 trypanosome cell rescue assay (Example B5). The settings on record: Trypanosoma brucei, 20 h, read-out: APOL1 G1 Trypanosome Rescue EC50, Trypanosoma brucei Lister 427 VSG221 with APOL1 G1 recombinant protein, 20 hours, CellTiter-Glo; geometric mean of at least 2 assay runs; † = single assay run. The gist of the method:
(§1)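 Mature APOL1 (residues 28-398, E. coli-expressed, His-tag removed by TEV) was added as a 2 μg/mL solution to T. brucei Lister 427 VSG221 in modified HMI-9 medium at 250 cells/well, with duplicate 11-point 2-fold compound dilutions (0.4% DMSO). After 20 h at 37° C, 5% CO2, viability was read by CellTiter-Glo luminescence.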
A general note: ATP-based viability assays read luminescence as a measure of living cells.

Test [2] deals with HEK293 cells overexpressing APOL1 G2. Nature of the test: APOL1 G2 HEK293 cell rescue assay (reversal of cell death caused by overexpression of APOL1). The settings on record: Homo sapiens, HEK293, HEK293 overexpressing APOL1 G2; geometric mean of at least 2 assay runs; † = single assay run. The gist of the method:
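EC50 is the half-maximal effective concentration for reversing cell death driven by APOL1 G2 overexpression in HEK293 cells. Reported as geometric mean of at least 2 runs on separate days, each run averaging duplicate wells per plate; some values from a single run.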

In test [3] the test system is Trypanosoma brucei Lister 427 VSG221 with APOL1 G0 recombinant protein. Nature of the test: APOL1 G0 trypanosome cell rescue assay (Example B5). The settings on record: Trypanosoma brucei, 20 h, read-out: APOL1 G0 Trypanosome Rescue EC50, Trypanosoma brucei Lister 427 VSG221 with APOL1 G0 recombinant protein, 20 hours, CellTiter-Glo; geometric mean of at least 2 assay runs; † = single assay run. The gist of the method:
as §1

Consider `CS(=O)(=O)C1(c2ccc(OCCN3CCC4(CC3)C(=O)Nc3ccc(Cl)cc34)cc2)CC2(COC2)C1` [Compound 182, 5-chloro-1′-[2-(4-{6-methanesulfonyl-2-oxaspiro[3.3]heptan-6-yl}phenoxy)ethyl]-1,2-dihydrospiro[indole-3,4′-piperidin]-2-one], for which the pEC50 in test [1] was 6.32; in test [2], 7.00; in test [3], 6.40.
Take `CS(=O)(=O)C1(c2ccc(OCCN3CCC4(CC3)C(=O)N(CC(F)(F)F)c3ccc(C#N)cc34)cc2)COC1` [Compound 184, 1′-{2-[4-(3-methanesulfonyloxetan-3-yl)phenoxy]ethyl}-2-oxo-1-(2,2,2-trifluoroethyl)-1,2-dihydrospiro[indole-3,4′-piperidine]-5-carbonitrile]: the pEC50 in test [1] is 5.68; in test [2], 6.30; in test [3], 5.80.
For the molecule `CS(=O)(=O)C1(c2ccc(OCCN3CCC4(CC3)C(=O)N(CC(F)(F)F)c3ccc(Cl)cc34)cc2)COC1` [Compound 185, 5-chloro-1′-{2-[4-(3-methanesulfonyloxetan-3-yl)phenoxy]ethyl}-1-(2,2,2-trifluoroethyl)-1,2-dihydrospiro[indole-3,4′-piperidin]-2-one], the results for the pEC50 in test [1], in test [2] and in test [3] were 6.32, 6.95 and 6.51, respectively.
`CS(=O)(=O)C1(c2ccc(OCCN3CCC4(CC3)C(=O)Nc3ccc(Cl)cc34)cc2)CCOCC1` [Compound 188, 5-chloro-1′-{2-[4-(4-methanesulfonyloxan-4-yl)phenoxy]ethyl}-1,2-dihydrospiro[indole-3,4′-piperidin]-2-one]: the pEC50 is 7.02 in test [1], 7.41 in test [2] and 7.15 in test [3].
For `CN1C(=O)C2(CCN(CCOc3cc(F)c(C4(S(C)(=O)=O)COC4)c(F)c3)CC2)c2cc(C#N)ccc21` [Compound 189, 1′-{2-[3,5-difluoro-4-(3-methanesulfonyloxetan-3-yl)phenoxy]ethyl}-1-methyl-2-oxo-1,2-dihydrospiro[indole-3,4′-piperidine]-5-carbonitrile], the pEC50 in test [1] is 6.61; in test [2], 7.23; in test [3], 6.78.
For the molecule `CC(C)(c1ccc(OCCN2CCC3(CC2)C(=O)Nc2ccc(C#N)cc23)cn1)S(C)(=O)=O` [Compound 191, 1′-(2-{[6-(2-methanesulfonylpropan-2-yl)pyridin-3-yl]oxy}ethyl)-2-oxo-1,2-dihydrospiro[indole-3,4′-piperidine]-5-carbonitrile], the pEC50 in test [1] was 6.52; in test [2], 6.89; in test [3] it was 6.60.
